Experiment: Dissolved water in the solvent layer (extract) of acetic acid extraction
Type: physicochemical
Conditions: Acid in solvent layer 16.85 wt.%
Description: Generally as the distribution coefficient goes up, water solubility increases in the extract. The effect for methyl n-amyl ketone and diisobutyl ketone is as follows: […]

Compound | Dissolved water in solvent layer, wt.% [wt.%]
CC(C)CC(=O)CC(C)C [diisobutyl ketone] | 3.0
CCCCCC(C)=O [methyl n-amyl ketone] | 5.0

— patent EP0134650B1, “High boiling solvent system for recovery of acetic acid from aqueous solutions” (CELANESE CORPORATION, priority 1983, dated 1985)
